Experimental findings from paper PMC10350920, “Development of a 2,4-Diaminothiazole Series for the Treatment of Human African Trypanosomiasis Highlights the Importance of Static–Cidal Screening of Analogues” (Journal of Medicinal Chemistry, 2023) are described below.

A word on the solubility: it is how much of the substance goes into solution per volume.

The series in a line: Kinetic aqueous solubility (laser nephelometry). The class given is physicochemical. As to conditions: Milli-Q water with 2.5% DMSO. As to the method: The kinetic aqueous solubility of the test compounds was measured using laser nephelometry. Compounds were subject to serial dilution from 10 to 0.5 mM in DMSO. An aliquot was then mixed with Milli-Q water to obtain an aqueous dilution plate with a final concentration range of 13–250 μM, with a final DMSO concentration of 2.5%. Triplicate aliquots were transferred to a flat-bottomed polystyrene plate which was immediately read on the NEPHELOstar (BMG Lab Technologies). The amount of laser scatter caused by insoluble particulates (relative nephelometry units, RNUs) was plotted against compound concentration using a segmental regression fit, with the point of inflection being quoted as the compound’s aqueous solubility (μM).

With `CC(C)(O)CC(=O)c1sc(Nc2ccc(F)c(F)c2)nc1N` [Compound 38, 1-(4-Amino-2-((3,4-difluorophenyl)amino)thiazol-5-yl)-3-hydroxy-3-methylbutan-1-one], the solubility is above 100 µg/mL.
